Columns and labels:
Assay in all cases: NCI one-dose SRB anti-proliferative screen
RXF 393 = type: cell-based, human; conditions: for inhibition at 10 µM: Homo sapiens, RXF 393, Renal cancer, NCI one dose, read-out: Cell growth inhibition %
Description: (§1) The twenty-four synthesized compounds were submitted to the National Cancer Institute (NCI), USA. Eighteen hybrids 7a-h, 7k-r, 7u, and 7v were selected by NCI for one-dose assessment of their anti-proliferative activities at 10 µM dose by Sulforhodamine B colorimetric assay. The assessment was performed in 60 cell lines derived from nine tumor subpanels, comprising lung, leukemia, melanoma, colon, renal, CNS, prostate, breast, and ovarian cancer cell lines.
(§2) The methodology of the NCI anti-proliferative screening has been described in details elsewhere (http://www.dtp.nci.nih.gov).

MOLT-4 = type: cell-based, human; conditions: for inhibition at 10 µM: Homo sapiens, MOLT-4, Leukemia, NCI one dose, read-out: Cell growth inhibition %
Description: as §1, §2

HCT-116 = type: cell-based, human; conditions: for inhibition at 10 µM: Homo sapiens, HCT-116, Colon cancer, NCI one dose, read-out: Cell growth inhibition %
Description: as §1, §2

K-562 = type: cell-based, human; conditions: for inhibition at 10 µM: Homo sapiens, K562, K-562, Leukemia, NCI one dose, read-out: Cell growth inhibition %
Description: as §1, §2

T-47D = type: cell-based, human; conditions: for inhibition at 10 µM: Homo sapiens, T47D, T-47D, Breast cancer, NCI one dose, read-out: Cell growth inhibition %
Description: as §1, §2

UO-31 = type: cell-based; conditions: Homo sapiens; UO-31, Renal cancer; NCI one dose; read-out: Cell growth inhibition %
Description: as §1, §2

PC-3 = type: cell-based; conditions: Homo sapiens; PC-3, Prostate Cancer; NCI one dose; read-out: Cell growth inhibition %
Description: as §1, §2

RPMI-8226 = type: cell-based; conditions: Homo sapiens; RPMI-8226, Leukemia; NCI one dose; read-out: Cell growth inhibition %
Description: as §1, §2

MALME-3M = type: cell-based; conditions: Homo sapiens; MALME-3M, Melanoma; NCI one dose; read-out: Cell growth inhibition %
Description: as §1, §2

A549/ATCC = type: cell-based; conditions: Homo sapiens; A549/ATCC, Non-Small Cell Lung Cancer; NCI one dose; read-out: Cell growth inhibition %
Description: as §1, §2

CCRF-CEM = type: cell-based; conditions: Homo sapiens; CCRF-CEM, Leukemia; NCI one dose; read-out: Cell growth inhibition %
Description: as §1, §2

UACC-62 = type: cell-based; conditions: Homo sapiens; UACC-62, Melanoma; NCI one dose; read-out: Cell growth inhibition %
Description: as §1, §2

COLO 205 = type: cell-based; conditions: Homo sapiens; COLO 205, Colon cancer; NCI one dose; read-out: Cell growth inhibition %
Description: as §1, §2

NCI-H522 = type: cell-based; conditions: Homo sapiens; NCI-H522, Non-Small Cell Lung Cancer; NCI one dose; read-out: Cell growth inhibition %
Description: as §1, §2

OVCAR-5 = type: cell-based; conditions: Homo sapiens; OVCAR-5, Ovarian Cancer; NCI one dose; read-out: Cell growth inhibition %
Description: as §1, §2

SK-OV-3 = type: cell-based; conditions: Homo sapiens; SK-OV-3, Ovarian Cancer; NCI one dose; read-out: Cell growth inhibition %
Description: as §1, §2

IGROV1 = type: cell-based; conditions: Homo sapiens, IGROV-1; IGROV1, Ovarian Cancer; NCI one dose; read-out: Cell growth inhibition %
Description: as §1, §2

BT-549 = type: cell-based; conditions: Homo sapiens; BT-549, Breast cancer; NCI one dose; read-out: Cell growth inhibition %
Description: as §1, §2

MDA-MB-435 = type: cell-based; conditions: Homo sapiens; MDA-MB-435, Melanoma; NCI one dose; read-out: Cell growth inhibition %
Description: as §1, §2

SK-MEL-2 = type: cell-based; conditions: Homo sapiens; SK-MEL-2, Melanoma; NCI one dose; read-out: Cell growth inhibition %
Description: as §1, §2

SNB-75 = type: cell-based; conditions: Homo sapiens; SNB-75, CNS Cancer; NCI one dose; read-out: Cell growth inhibition %
Description: as §1, §2

SK-MEL-28 = type: cell-based; conditions: Homo sapiens; SK-MEL-28, Melanoma; NCI one dose; read-out: Cell growth inhibition %
Description: as §1, §2

OVCAR-8 = type: cell-based; conditions: Homo sapiens; OVCAR-8, Ovarian Cancer; NCI one dose; read-out: Cell growth inhibition %
Description: as §1, §2

EKVX = type: cell-based; conditions: Homo sapiens; EKVX, Non-Small Cell Lung Cancer; NCI one dose; read-out: Cell growth inhibition %
Description: as §1, §2

HOP-62 = type: cell-based; conditions: Homo sapiens; HOP-62, Non-Small Cell Lung Cancer; NCI one dose; read-out: Cell growth inhibition %
Description: as §1, §2

UACC-257 = type: cell-based; conditions: Homo sapiens; UACC-257, Melanoma; NCI one dose; read-out: Cell growth inhibition %
Description: as §1, §2

HCT-15 = type: cell-based; conditions: Homo sapiens; HCT-15, Colon cancer; NCI one dose; read-out: Cell growth inhibition %
Description: as §1, §2

MCF7 = type: cell-based; conditions: Homo sapiens; MCF7, Breast cancer; NCI one dose; read-out: Cell growth inhibition %
Description: as §1, §2

HS 578T = type: cell-based; conditions: Homo sapiens; HS 578T, Breast cancer; NCI one dose; read-out: Cell growth inhibition %
Description: as §1, §2

SN12C = type: cell-based; conditions: Homo sapiens, SN 12C, Renal cancer, NCI one dose, read-out: Cell growth inhibition %
Description: as §1, §2

| SMILES | inhibition at 10 µM (RXF 393) | inhibition at 10 µM (MOLT-4) | inhibition at 10 µM (HCT-116) | inhibition at 10 µM (K-562) | inhibition at 10 µM (T-47D) | inhibition at 10 µM (UO-31) | inhibition at 10 µM (PC-3) | inhibition at 10 µM (RPMI-8226) | inhibition at 10 µM (MALME-3M) | inhibition at 10 µM (A549/ATCC) | inhibition at 10 µM (CCRF-CEM) | inhibition at 10 µM (UACC-62) | inhibition at 10 µM (COLO 205) | inhibition at 10 µM (NCI-H522) | inhibition at 10 µM (OVCAR-5) | inhibition at 10 µM (SK-OV-3) | inhibition at 10 µM (IGROV1) | inhibition at 10 µM (BT-549) | inhibition at 10 µM (MDA-MB-435) | inhibition at 10 µM (SK-MEL-2) | also measured |
| --- | --- | --- | --- | --- | --- | --- | --- | --- | --- | --- | --- | --- | --- | --- | --- | --- | --- | --- | --- | --- | --- |
| O=C(CSc1nnc(-c2ccc3[nH]c(-c4ccccc4)nc3c2)o1)Nc1ccc(C(=O)/C=C/c2ccc(Cl)cc2)cc1 [Compound 7b, 2-{5-[2-Phenyl-1 H-benzo[d]imidazol-5-yl]-1,3,4-oxadiazol-2-ylthio}-N-{4-[(E)-3-(4-chlorophenyl)acryloyl]phenyl}acetamide] | 0% | 6.55% | 8.66% | 0% | 12.3% | 25.5% | 0.53% | 12.2% | 0% | 0% | 0% | 11.6% | 0% | 11.6% | 0% | 0% | 15.3% | 1.92% | 0% | 0% | inhibition at 10 µM (SNB-75): 0%; inhibition at 10 µM (SK-MEL-28): 0%; inhibition at 10 µM (OVCAR-8): 2.36%; inhibition at 10 µM (EKVX): 0%; inhibition at 10 µM (HOP-62): 0%; inhibition at 10 µM (UACC-257): 0%; inhibition at 10 µM (HCT-15): 0%; inhibition at 10 µM (MCF7): 16.8%; inhibition at 10 µM (HS 578T): 0%; inhibition at 10 µM (SN12C): 9.8% |
| COc1cc(/C=C/C(=O)c2ccc(NC(=O)CSc3nnc(-c4ccc5[nH]c(-c6ccccc6)nc5c4)o3)cc2)cc(OC)c1OC [Compound 7e, 2-{5-[2-Phenyl-1 H-benzo[d]imidazol-5-yl]-1,3,4-oxadiazol-2-ylthio}-N-{4-[(E)-3-(3,4,5-trimethoxyphenyl)acryloyl]phenyl}acetamide] | 107% | 35% | 59.2% | 41.7% | 11.1% | 10.6% | 1.05% | 69.3% | 0% | 0% | 62.5% | 17% | 0% | 4.71% | 0% | 0% | 2.76% | 18.4% | 5.93% | 0% | Growth Percent (RXF 393; RXF 393 (Renal Cancer), 10 µM one dose): -6.89%; Growth Percent (MOLT-4; MOLT-4 (Leukemia), 10 µM one dose): 30%; Growth Percent (HCT-116; HCT-116 (Colon Cancer), 10 µM one dose): 40.76%; Growth Percent (K-562; K-562 (Leukemia), 10 µM one dose): 58%; inhibition at 10 µM (SNB-75): 18.9%; inhibition at 10 µM (SK-MEL-28): 6.64%; inhibition at 10 µM (OVCAR-8): 2.93%; inhibition at 10 µM (EKVX): 0.96%; inhibition at 10 µM (HOP-62): 0%; inhibition at 10 µM (UACC-257): 12.4%; inhibition at 10 µM (HCT-15): 12.4%; inhibition at 10 µM (MCF7): 56.1%; inhibition at 10 µM (HS 578T): 14.5%; inhibition at 10 µM (SN12C): 9.21% |
| COc1ccc(/C=C/C(=O)c2ccc(NC(=O)CSc3nnc(-c4ccc5[nH]c(-c6ccccc6)nc5c4)o3)cc2)cc1OC [Compound 7d, 2-{5-[2-Phenyl-1 H-benzo[d]imidazol-5-yl]-1,3,4-oxadiazol-2-ylthio}-N-{4-[(E)-3-(3,4-dimethoxyphenyl)acryloyl]phenyl}acetamide] | 0% | 7.24% | 6.47% | 0% | 2.51% | 11% | 0% | 14.7% | 2.37% | 0% | 9.62% | 5.31% | 0% | 3.75% | 0% | 0% | 0% | 10.4% | 0% | 0% | inhibition at 10 µM (SNB-75): 0%; inhibition at 10 µM (SK-MEL-28): 0%; inhibition at 10 µM (OVCAR-8): 0%; inhibition at 10 µM (EKVX): 0%; inhibition at 10 µM (HOP-62): 0%; inhibition at 10 µM (UACC-257): 0%; inhibition at 10 µM (HCT-15): 0%; inhibition at 10 µM (MCF7): 27.3%; inhibition at 10 µM (HS 578T): 0%; inhibition at 10 µM (SN12C): 0% |
| COc1ccc(/C=C/C(=O)c2ccc(NC(=O)CSc3nnc(-c4ccc5[nH]c(-c6ccccc6)nc5c4)o3)cc2)cc1 [Compound 7c, 2-{5-[2-Phenyl-1 H-benzo[d]imidazol-5-yl]-1,3,4-oxadiazol-2-ylthio}-N-{4-[(E)-3-(4-methoxyphenyl)acryloyl]phenyl}acetamide] | 8.38% | 23.9% | 15.1% | 3.83% | 47.6% | 8.67% | 5.12% | 50.9% | 8.64% | 0% | 34.5% | 9.5% | 0% | 8.81% | 0% | 0% | 0% | 18.7% | 0% | 2.65% | Growth Percent (T-47D; T-47D (Breast Cancer), 10 µM one dose): 52.35%; inhibition at 10 µM (SNB-75): 0%; inhibition at 10 µM (SK-MEL-28): 0%; inhibition at 10 µM (OVCAR-8): 9.58%; inhibition at 10 µM (EKVX): 0%; inhibition at 10 µM (HOP-62): 0%; inhibition at 10 µM (UACC-257): 0%; inhibition at 10 µM (HCT-15): 3.81%; inhibition at 10 µM (MCF7): 27.5%; inhibition at 10 µM (HS 578T): 0%; inhibition at 10 µM (SN12C): 3.32% |

From paper PMC10504751, “Chalcone/1,3,4-Oxadiazole/Benzimidazole hybrids as novel anti-proliferative agents inducing apoptosis and inhibiting EGFR & BRAFV^600E” (BMC Chemistry, 2023)
